Test results reported in ChEMBL document CHEMBL4613209, “Quinolone hybrids and their anti-cancer activities: An overview” (Eur J Med Chem, 2019).
≈ marks a conversion by molar mass, not a printed value.

Tests used:
HeLa [1] = test: Antiproliferative activity against human HeLa cells after 48 hrs by MTT assay; assay type: functional, cell-based
HCT-116 [2] = test: Antiproliferative activity against human HCT116 cells after 48 hrs by MTT assay; assay type: functional, cell-based; conditions: HCT-116, 48 h
HCT-8 = test: Antiproliferative activity against human HCT8 cells after 48 hrs by MTT assay; assay type: functional, cell-based; conditions: HCT-8, 48 h
[3] = Cytotoxicity against human WI38 cells assessed as reduction in cell viability; assay type: cell-based; conditions: WI-38 cells, read-out: TD50 (the source's name)
OVCAR-3 = test: Potency index, ratio of TD50 for doxorubicin to TD50 for test compound for cytotoxicity against human OVCAR3 cells assessed as reduction in cell viability; assay type: functional
[4] = Potency index, ratio of TD50 for doxorubicin to TD50 for test compound for cytotoxicity against human SW403 cells assessed as reduction in cell viability; assay type: functional
L1210 = test: Potency index, ratio of TD50 for doxorubicin to TD50 for test compound for cytotoxicity against mouse L1210 cells assessed as reduction in cell viability; assay type: functional
MRC5 = test: Cytotoxicity against human MRC5 cells assessed as reduction in cell viability; assay type: functional; conditions: read-out: TD50 (the source's name)
CCRF S-180 = test: Antitumor activity against mouse S180 cells xenografted in mouse assessed as reduction in tumor weight at 10 mg/kg relative to control; assay type: functional; design: scale not given: the % may be the effect or the level left
MCF7 [5] = test: Potency index, ratio of TD50 for doxorubicin to TD50 for test compound for cytotoxicity against human MCF7 cells assessed as reduction in cell viability; assay type: functional
KB = test: Potency index, ratio of TD50 for doxorubicin to TD50 for test compound for cytotoxicity against human KB cells assessed as reduction in cell viability; assay type: functional
DU-145 [6] = test: Cytotoxicity against human DU145 cells assessed as reduction in cell viability after 48 hrs by SRB assay; assay type: functional, cell-based; conditions: DU-145, 48 h
PC-3 = test: Cytotoxicity against human PC3 cells assessed as reduction in cell viability after 48 hrs by SRB assay; assay type: functional, cell-based; conditions: PC-3, 48 h
SW1990 = test: Cytotoxicity against human SW1990 cells assessed as reduction in cell viability by MTT assay; assay type: functional, cell-based
MCF7 [7] = test: Cytotoxicity against human MCF7 cells assessed as reduction in cell viability by MTT assay; assay type: functional, cell-based
NCI/ADR-RES = test: Cytotoxicity against human MCF7/ADR cells assessed as reduction in cell viability by MTT assay; assay type: functional, cell-based
HUVEC = test: Cytotoxicity against human HUVEC cells assessed as reduction in cell viability by MTT assay; assay type: cell-based
SMMC-7721 = test: Cytotoxicity against human SMMC7721 cells assessed as reduction in cell viability by MTT assay; assay type: functional, cell-based
HL-60 [8] = test: Antiproliferative activity against human HL60 cells after 72 hrs by MTT assay; assay type: functional, cell-based; conditions: HL-60, 72 h
HeLa [9] = test: Antiproliferative activity against human HeLa cells after 72 hrs by MTT assay; assay type: functional, cell-based
A549 [10] = test: Antiproliferative activity against human A549 cells after 72 hrs by MTT assay; assay type: functional, cell-based; conditions: A549, 72 h
PANC-1 [11] = test: Growth inhibition of human PANC1 cells after 48 hrs by SRB assay; assay type: functional; conditions: PANC-1, 48 h
MDA-MB-231 [12] = test: Growth inhibition of human MDA-MB-231 cells after 48 hrs by SRB assay; assay type: functional; conditions: MDA-MB-231, 48 h
SiHa = test: Growth inhibition of human SiHa cells after 48 hrs by SRB assay; assay type: functional
K562 = test: Anticancer activity against human K562 cells after 48 to 72 hrs by MTT assay; assay type: functional, cell-based
Hep 3B2 = test: Anticancer activity against human Hep3B cells after 48 to 72 hrs by MTT assay; assay type: functional, cell-based
MCF7 [13] = test: Cytotoxicity against human MCF7 cells assessed as reduction in cell viability by SRB assay; assay type: functional, cell-based
HCT-116 [14] = test: Cytotoxicity against human HCT116 cells assessed as reduction in cell viability by SRB assay; assay type: functional, cell-based
MCF7 [15] = test: Cytotoxicity against human MCF7 cells assessed as reduction in cell viability after 48 hrs by MTT assay; assay type: functional, cell-based; conditions: MCF7, 48 h
MCF7 [16] = test: Anticancer activity against human MCF7 cells after 48 hrs by SRB assay; assay type: functional, cell-based; conditions: MCF7, 48 h
[17] = Toxicity in mouse xenografted with human MB-9812 cells
MCF7-DOX = test: Anticancer activity against human MCF7/Dox cells after 48 hrs by SRB assay; assay type: functional, cell-based
HL-60 [18] = test: Anticancer activity against human HL60 cells after 48 hrs by SRB assay; assay type: functional, cell-based; conditions: HL-60, 48 h
MCF7 [19] = test: Cytotoxicity against human MCF7 cells assessed as reduction in cell viability after 72 hrs by MTT assay; assay type: functional, cell-based; conditions: MCF7, 72 h
[20] = Toxicity in mouse xenografted with human CX-1 cells; conditions: in vivo
A549 [21] = test: Anticancer activity against human A549 cells after 48 hrs by SRB assay; assay type: functional, cell-based; conditions: A549, 48 h
HepG2 = test: Anticancer activity against human HepG2 cells after 48 hrs by SRB assay; assay type: functional, cell-based; conditions: HepG2, 48 h
HeLa [22] = test: Anticancer activity against human HeLa cells after 48 hrs by SRB assay; assay type: functional, cell-based
MDA-MB-231 [23] = test: Cytotoxicity against human MDA-MB-231 cells assessed as reduction in cell viability after 48 hrs by MTT assay; assay type: functional, cell-based; conditions: MDA-MB-231, 48 h
T47D = test: Cytotoxicity against human T47D cells assessed as reduction in cell viability after 48 hrs by MTT assay; assay type: functional, cell-based
DU-145 [24] = test: Anticancer activity against human DU145 cells after 48 hrs by SRB assay; assay type: functional, cell-based; conditions: DU-145, 48 h
HCT-116 [25] = test: Anticancer activity against human HCT116 cells after 48 hrs by SRB assay; assay type: functional, cell-based; conditions: HCT-116, 48 h
SK-OV-3 = test: Anticancer activity against human SKOV3 cells after 48 hrs by SRB assay; assay type: functional, cell-based; conditions: SK-OV-3, 48 h
PANC-1 [26] = test: Anticancer activity against human PANC1 cells after 48 hrs by SRB assay; assay type: functional, cell-based; conditions: PANC-1, 48 h
MCF7 [27] = test: Potency index, ratio of IC50 for etoposide to IC50 for test compound for cytotoxicity against human MCF7 cells assessed as reduction in cell viability after 72 hrs by MTT assay; assay type: functional
EJ = test: Cytotoxicity against human EJ cells assessed as reduction in cell viability by MTT assay; assay type: functional, cell-based
A-431 = test: Cytotoxicity against human A431 cells assessed as reduction in cell viability by MTT assay; assay type: functional, cell-based
SK-MEL3 = test: Cytotoxicity against human SK-MEL-3 cells assessed as reduction in cell viability by MTT assay; assay type: functional, cell-based
SW480 = test: Cytotoxicity against human SW480 cells assessed as reduction in cell viability by MTT assay; assay type: functional, cell-based
HT-1080 = test: Cytotoxicity against human HT1080 cells assessed as reduction in cell viability; assay type: functional, cell-based
HeLa [28] = test: Cytotoxicity against human HeLa cells assessed as reduction in cell viability after 48 hrs by MTT assay; assay type: functional, cell-based
[29] = Cytotoxicity against human MGC832 cells assessed as reduction in cell viability after 48 hrs by MTT assay; assay type: functional, cell-based

Question: Which IC50 (HeLa [1]) does the source give for COc1ccc(C2CC(c3c(-c4ccccc4)c4ccccc4[nH]c3=O)=NN2c2ccccc2)cc1 (configuration not stated) here?
Answer: 2.4 µM

Question: What about the IC50 (HCT-116 [2]) of the same compound?
Answer: 2.2 µM

Question: What about the IC50 (HCT-8) of the same compound?
Answer: 5.6 µM

Question: For Cc1cn(-c2ccc(CCCCCCCCCCn3ccc(=O)c4c(N)cccc43)cc2)nn1, which CC50 [3] is on record?
Answer: 7.45 µg/mL (≈ 16.3 µM)

Question: What about the Ratio (OVCAR-3) of the same compound?
Answer: >=4.6

Question: What about the Ratio [4] of the same compound?
Answer: >=4.6

Question: And the Ratio (L1210)?
Answer: >=4.6

Question: What about the CC50 (MRC5) of the same compound?
Answer: 0.033 µg/mL (≈ 0.0721 µM)

Question: What about the Activity (CCRF S-180) of the same compound?
Answer: 13.1%

Question: What about the Ratio (MCF7 [5]) of the same compound?
Answer: >=4.6

Question: What about the Ratio (KB) of the same compound?
Answer: >=4.6

Question: Which results are given for Cn1c(=O)cc(Cc2nnc3n2N=C(c2cc4ccccc4oc2=O)CS3)c2ccccc21?
Answer: IC50 (DU-145 [6]): 20.4 µg/mL (≈ 44.8 µM); IC50 (PC-3): 43.3 µg/mL (≈ 95.1 µM)

Question: What does the source list for COc1ccc2cc3[n+](cc2c1OCc1cn(Cc2cc(=O)[nH]c4ccccc24)nn1)-c1cc2c(cc1CC3)OCO2?
Answer: IC50 (SW1990): 75.5 to 181 µM; IC50 (MCF7 [7]): 75.5 to 181 µM; IC50 (NCI/ADR-RES): 75.5 to 181 µM; IC50 (HUVEC): 75.5 to 181 µM; IC50 (SMMC-7721): 75.5 to 181 µM

Question: With N=C(NS(=O)(=O)c1cccc(C(F)(F)F)c1)N1CCN(c2cc3c(cc2F)c(=O)c(C(=O)O)cn3-c2ccc(F)cc2F)CC1 as the compound, how does the IC50 (HL-60 [8]) read?
Answer: 0.018 µM

Question: And the IC50 (HeLa [9])?
Answer: 0.01 µM

Question: What about the IC50 (A549 [10]) of the same compound?
Answer: 0.028 µM

Question: What does the source list for CCn1cc(C(=O)O)c(=O)c2cnc(N3CCN(C(=O)CCSc4nnnn4-c4ccc(Br)cc4)CC3)nc21?
Answer: GI50 (PANC-1 [11]): 0.07 µM; GI50 (MDA-MB-231 [12]): 0.22 µM; GI50 (SiHa): 0.08 µM

Question: With O=c1c(/C(CCN2CCOCC2)=N/Nc2ccccc2)c(O)c2ccccc2n1-c1ccccc1 as the compound, how does the IC50 (K562) read?
Answer: < 20 µg/mL

Question: And the IC50 (Hep 3B2)?
Answer: < 20 µg/mL

Question: Which IC50 (MCF7 [13]) does the source give for N#Cc1c(N)c2cc(-c3nc4ccccc4o3)ccc2[nH]c1=O here?
Answer: 0.0267 µM

Question: And the IC50 (HCT-116 [14])?
Answer: 0.0357 µM

Question: What does the source list for COc1cc([C@@H]2c3cc4c(cc3[C@@H](O[C@@H]3O[C@@H]5CO[C@@H](C)O[C@H]5[C@H](O)[C@H]3O)[C@H]3COC(=O)[C@H]23)OCO4)cc(OC)c1O [ETOPOSIDE]?
Answer: IC50 (MCF7 [15]): 11.8 to 15.7 µM; IC50 (MCF7 [16]): 2.91 to 50 µM; LD50 [17]: 64 mg/kg; IC50 (MCF7-DOX): 2.91 to 50 µM; IC50 (HL-60 [18]): 2.91 to 50 µM; IC50 (MCF7 [19]): 2.91 to 50 µM; LD50 [20]: 64 mg/kg; IC50 (A549 [21]): 2.91 to 50 µM; IC50 (HepG2): 2.91 to 50 µM; IC50 (HeLa [22]): 2.91 to 50 µM; IC50 (MDA-MB-231 [23]): 11.8 to 15.7 µM; IC50 (T47D): 11.8 to 15.7 µM; IC50 (DU-145 [24]): 2.91 to 50 µM; IC50 (HCT-116 [25]): 2.91 to 50 µM; IC50 (SK-OV-3): 2.91 to 50 µM; IC50 (PANC-1 [26]): 2.91 to 50 µM

Question: Which results are given for CCn1cc(C(=O)O)c(=O)c2cc(F)c(N3CCN(C/C(=N/OC)c4ccc(Cl)s4)CC3)cc21?
Answer: IC50 (MCF7 [7]): ≤ 20 µM; Ratio IC50 (MCF7 [27]): 4.64; IC50 (EJ): ≤ 20 µM; IC50 (MCF7 [19]): 2.5 to 5 µM; IC50 (A-431): ≤ 20 µM; IC50 (SK-MEL3): ≤ 20 µM; IC50 (SW480): ≤ 20 µM

Question: For Cc1cc2c(n1-c1ccccc1)CCc1cc(S(=O)(=O)c3ccccc3)c(O)nc1-2, which IC50 (HT-1080) is on record?
Answer: 0.4 to 3.6 µM

Question: For COC(=O)c1c(-c2ccc[nH]2)[nH]c2ccccc2c1=O, which IC50 (HeLa [28]) is on record?
Answer: 0.11 µM

Question: What about the IC50 [29] of the same compound?
Answer: 0.013 µM

Question: For COc1ccc2cc3[n+](cc2c1OC)CCc1cc2c(cc1-3)OCO2 [BERBERINE], which IC50 (SW1990) is on record?
Answer: 18.3 to 65.6 µM

Question: And the IC50 (HUVEC)?
Answer: 18.3 to 65.6 µM

Question: What about the IC50 (SMMC-7721) of the same compound?
Answer: 18.3 to 65.6 µM
